What was measured:
[1] = tested on: AMARE; assay: Pre-emergence herbicidal action against AMARE; format: in vivo, Amaranthus retroflexus; details: Amaranthus retroflexus, 504 h, scored visually after 3 weeks vs untreated controls, 100% = plants have died, 0% = like control plants
Procedure, shortened: (§1)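 Sandy loam pots, seeds covered with soil, then surface-treated with WP or EC formulations at 600–800 l/ha water plus 0.2% wetting agent. Greenhouse, 3 weeks. Percent damage vs untreated controls.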

[2] = tested on: ABUTH; assay: Pre-emergence herbicidal action against ABUTH; format: in vivo, Abutilon theophrasti; details: Abutilon theophrasti, 504 h; for pest or weed control at 80 g/ha: scored visually after 3 weeks vs untreated controls (100% = plants have died, 0% = like control plants); for pest or weed control at 20 g/ha: dosage 20 g/ha, scored visually after 3 weeks vs untreated controls, 100% = plants have died, 0% = like control plants, read-out: Pre-emergence action against ABUTH (herbicidal activity in percent)
Procedure, shortened: as §1

[3] = tested on: STEME; assay: Pre-emergence herbicidal action against STEME; format: in vivo, Stellaria media; details: Stellaria media, 504 h; for pest or weed control at 20 g/ha: dosage 20 g/ha; for pest or weed control at 80 g/ha: dosage 80 g/ha
Procedure, shortened: as §1

[4] = tested on: DIGSA; assay: Pre-emergence herbicidal action against DIGSA; format: in vivo, Digitaria sanguinalis; details: Digitaria sanguinalis, 504 h; for pest or weed control at 20 g/ha: dosage 20 g/ha; for pest or weed control at 80 g/ha: dosage 80 g/ha
Procedure, shortened: as §1

[5] = tested on: DIGSA; assay: Post-emergence herbicidal action against DIGSA; format: in vivo, Digitaria sanguinalis; details: Digitaria sanguinalis, 504 h
Procedure, shortened: (§2)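 Visual % rating (0% = as untreated, 100% = dead) ~3 wk after spraying one-leaf-stage plants grown in sandy loam; WP/EC in water at 600–800 l/ha, 0.2% wetting agent.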

[6] = tested on: POLCO; assay: Post-emergence herbicidal action against POLCO; format: in vivo, Polygonum convolvulus; details: Fallopia convolvulus, 504 h, dosage 20 g/ha
Procedure, shortened: as §2

[7] = tested on: ECHCG; assay: Pre-emergence herbicidal action against ECHCG; format: in vivo, Echinochloa crus-galli; details: Echinochloa crus-galli, 504 h
Procedure, shortened: as §1

[8] = tested on: AVEFA; assay: Post-emergence herbicidal action against AVEFA; format: in vivo, Avena fatua; details: Avena fatua, 504 h, 20 g/ha, visual assessment about 3 weeks after treatment, 100% = plants have died, 0% = like control plants
Procedure, shortened: as §2

[9] = tested on: STEME; assay: Post-emergence herbicidal action against STEME; format: in vivo, Stellaria media; details: Stellaria media, 504 h; for pest or weed control at 5 g/ha: dosage 5 g/ha
Procedure, shortened: as §2

[10] = tested on: SETVI; assay: Pre-emergence herbicidal action against SETVI; format: in vivo, Setaria viridis; details: Setaria viridis, 504 h; for pest or weed control at 80 g/ha: dosage 80 g/ha
Procedure, shortened: as §1

[11] = tested on: MATIN; assay: Post-emergence herbicidal action against MATIN; format: in vivo, Matricaria inodora; details: Tripleurospermum inodorum, 504 h; for pest or weed control at 20 g/ha: dosage 20 g/ha
Procedure, shortened: as §2

[12] = tested on: AMARE; assay: Post-emergence herbicidal action against AMARE; format: in vivo, Amaranthus retroflexus; details: Amaranthus retroflexus, 504 h, 20 g/ha, visual assessment about 3 weeks after treatment, 100% = plants have died, 0% = like control plants
Procedure, shortened: as §2

[13] = tested on: VERPE; assay: Pre-emergence herbicidal action against VERPE; format: in vivo, Veronica persica; details: Veronica persica, 504 h, dosage 80 g/ha
Procedure, shortened: as §1

[14] = tested on: ALOMY; assay: Post-emergence herbicidal action against ALOMY; format: in vivo, Alopecurus myosuroides; details: Alopecurus myosuroides, 504 h, dosage 20 g/ha, visual assessment about 3 weeks after treatment vs untreated controls
Procedure, shortened: as §2

[15] = tested on: MATIN; assay: Pre-emergence herbicidal action against MATIN; format: in vivo, Matricaria inodora; details: Tripleurospermum inodorum, 504 h; for pest or weed control at 20 g/ha: dosage 20 g/ha; for pest or weed control at 80 g/ha: dosage 80 g/ha
Procedure, shortened: as §1

[16] = tested on: VIOTR; assay: Pre-emergence herbicidal action against VIOTR; format: in vivo, Viola tricolor; details: Viola tricolor, 504 h; for pest or weed control at 20 g/ha: dosage 20 g/ha; for pest or weed control at 80 g/ha: dosage 80 g/ha
Procedure, shortened: as §1

[17] = tested on: ALOMY; assay: Pre-emergence herbicidal action against ALOMY; format: in vivo, Alopecurus myosuroides; details: Alopecurus myosuroides, 504 h, pre-emergence; for pest or weed control at 80 g/ha: scored visually after 3 weeks vs untreated controls (100% = plants have died, 0% = like control plants); for pest or weed control at 20 g/ha: scored visually after 3 weeks, 100% = plants have died, 0% = like control plants
Procedure, shortened: as §1

[18] = tested on: AVEFA; assay: Pre-emergence herbicidal action against AVEFA; format: in vivo, Avena fatua; details: Avena fatua, 504 h, pre-emergence; for pest or weed control at 20 g/ha: scored visually after 3 weeks, 100% = plants have died, 0% = like control plants
Procedure, shortened: as §1

[19] = tested on: LOLRI; assay: Pre-emergence herbicidal action against LOLRI; format: in vivo, Lolium rigidum; details: Lolium rigidum, 504 h, 80 g/ha
Procedure, shortened: as §1

[20] = tested on: ABUTH; assay: Post-emergence herbicidal action against ABUTH; format: in vivo, Abutilon theophrasti; details: Abutilon theophrasti, 504 h, visual assessment about 3 weeks after treatment vs untreated controls; for pest or weed control at 5 g/ha: dosage 5 g/ha; for pest or weed control at 20 g/ha: dosage 20 g/ha
Procedure, shortened: as §2

[21] = tested on: VIOTR; assay: Post-emergence herbicidal action against VIOTR; format: in vivo, Viola tricolor; details: Viola tricolor, 504 h
Procedure, shortened: as §2

[22] = tested on: HORMU; assay: Pre-emergence herbicidal action against HORMU; format: in vivo, Hordeum murinum; details: for pest or weed control at 80 g/ha: Hordeum murinum, 504 h, pre-emergence
Procedure, shortened: as §1

[23] = tested on: ECHCG; assay: Post-emergence herbicidal action against ECHCG; format: in vivo, Echinochloa crus-galli; details: Echinochloa crus-galli, 504 h, dosage 20 g/ha
Procedure, shortened: as §2

[24] = tested on: SETVI; assay: Post-emergence herbicidal action against SETVI; format: in vivo, Setaria viridis; details: Setaria viridis, 504 h
Procedure, shortened: as §2

[25] = tested on: PHBPU; assay: Post-emergence herbicidal action against PHBPU; format: in vivo, Pharbitis purpurea; details: Ipomoea purpurea, 504 h, dosage 20 g/ha
Procedure, shortened: as §2

[26] = tested on: PHBPU; assay: Pre-emergence herbicidal action against PHBPU; format: in vivo, Pharbitis purpurea; details: Ipomoea purpurea, 504 h, dosage 80 g/ha
Procedure, shortened: as §1

[27] = tested on: POLCO; assay: Pre-emergence herbicidal action against POLCO; format: in vivo, Polygonum convolvulus; details: Fallopia convolvulus, 504 h, dosage 80 g/ha
Procedure, shortened: as §1

Compound | pest or weed control at 20 g/ha [1] [%] | pest or weed control at 80 g/ha [1] [%] | pest or weed control at 80 g/ha [2] [%] | pest or weed control at 20 g/ha [2] [%] | pest or weed control at 20 g/ha [3] [%] | pest or weed control at 80 g/ha [3] [%] | pest or weed control at 20 g/ha [4] [%] | pest or weed control at 80 g/ha [4] [%] | pest or weed control at 5 g/ha [5] [%] | pest or weed control at 20 g/ha [5] [%] | pest or weed control at 20 g/ha [6] [%] | pest or weed control at 80 g/ha [7] [%] | pest or weed control at 20 g/ha [9] [%] | pest or weed control at 5 g/ha [9] [%] | pest or weed control at 80 g/ha [10] [%] | pest or weed control at 20 g/ha [11] [%] | pest or weed control at 20 g/ha [12] [%] | pest or weed control at 80 g/ha [13] [%] | pest or weed control at 20 g/ha [14] [%] | pest or weed control at 20 g/ha [15] [%] | other results
CCNC(=O)c1c(C(F)(F)F)ccc(C(=O)Nc2nnnn2CC)c1Cl [Example 2-130] | 100 | 100 | 100 | 100 | 100 | 100 | 100 | 100 | 80 | 80 | 80 | 100 | 80 | 80 | 100 | 80 | 100 | 80 | 80 | 100 | pest or weed control at 20 g/ha ([7]; 20 g/ha): 80%; pest or weed control at 20 g/ha [8]: 90%; pest or weed control at 20 g/ha ([10]; dosage 20 g/ha): 90%; pest or weed control at 80 g/ha [15]: 100%; pest or weed control at 20 g/ha [16]: 100%; pest or weed control at 80 g/ha [16]: 100%; pest or weed control at 80 g/ha [17]: 100%; pest or weed control at 20 g/ha [17]: 90%; pest or weed control at 80 g/ha [18]: 100%; pest or weed control at 20 g/ha [18]: 90%; pest or weed control at 80 g/ha [19]: 100%; pest or weed control at 5 g/ha [20]: 90%; pest or weed control at 20 g/ha [20]: 90%; pest or weed control at 5 g/ha [21]: 90%; pest or weed control at 20 g/ha [21]: 100%; Pre-emergence action against HORMU ([22]; 20 g/ha, scored visually after 3 weeks, 100% = plants have died, 0% = like control plants): 90%; pest or weed control at 80 g/ha [22]: 100%; pest or weed control at 20 g/ha [23]: 80%
CCn1nnnc1NC(=O)c1ccc(C(F)F)c(C(=O)NC2CC2)c1Cl [Example 2-149] | 100 | 100 | 100 | 100 | 100 | 100 | 90 | 100 | 100 | 100 | 80 | 90 | 90 | 90 | 100 | 100 | 100 | 80 | 80 | 90 | pest or weed control at 5 g/ha ([24]; dosage 5 g/ha): 90%; pest or weed control at 20 g/ha ([24]; dosage 20 g/ha): 100%; pest or weed control at 20 g/ha [25]: 90%; pest or weed control at 80 g/ha [26]: 80%; pest or weed control at 5 g/ha ([11]; dosage 5 g/ha): 90%; pest or weed control at 80 g/ha [15]: 100%; pest or weed control at 20 g/ha [16]: 100%; pest or weed control at 80 g/ha [16]: 100%; pest or weed control at 80 g/ha [17]: 90%; pest or weed control at 20 g/ha [17]: 80%; pest or weed control at 80 g/ha [18]: 100%; pest or weed control at 20 g/ha [18]: 80%; pest or weed control at 80 g/ha [19]: 90%; pest or weed control at 80 g/ha [27]: 100%; pest or weed control at 5 g/ha [20]: 80%; pest or weed control at 20 g/ha [20]: 100%; pest or weed control at 5 g/ha [21]: 100%; pest or weed control at 20 g/ha [21]: 100%; pest or weed control at 80 g/ha [22]: 90%; pest or weed control at 20 g/ha [23]: 80%
